Non-standard residues stand in square brackets, D forms with d. Residues, ends and D or L forms follow the SMILES beside them. Dab = NCC[C@H](N)C(=O)O; Aib = CC(C)(N)C(=O)O
Target: T1, glucagon receptor (Homo sapiens, UniProt P47871)
T1 construct: expressed in transfected cells; host or cells: HEK293
Assay: Functional assay-cAMP synthesis, luciferase reporter in HEK293 cells, glucagon receptor
Type: cell-based
Parameters: % activity: concentration or dose not given beside the values
Conditions: Table 26, glucagon receptor

T1 sequence (P47871 26-477): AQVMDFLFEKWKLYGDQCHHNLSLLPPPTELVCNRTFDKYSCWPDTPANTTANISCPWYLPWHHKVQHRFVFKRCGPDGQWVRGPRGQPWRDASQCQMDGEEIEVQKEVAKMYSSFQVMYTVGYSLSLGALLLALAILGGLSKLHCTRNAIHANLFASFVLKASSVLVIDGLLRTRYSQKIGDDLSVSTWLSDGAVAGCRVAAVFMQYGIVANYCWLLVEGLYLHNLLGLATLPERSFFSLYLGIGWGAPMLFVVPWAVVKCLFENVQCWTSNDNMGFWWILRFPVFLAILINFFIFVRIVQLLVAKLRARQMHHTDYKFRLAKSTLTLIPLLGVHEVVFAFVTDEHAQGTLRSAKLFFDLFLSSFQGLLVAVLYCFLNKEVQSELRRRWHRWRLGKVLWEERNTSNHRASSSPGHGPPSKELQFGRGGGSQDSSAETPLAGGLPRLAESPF

Row | Structure (SMILES) | % activity [%]
1 | CCCC[C@H](NC(=O)[C@H](CC(C)C)NC(=O)[C@H](Cc1c[nH]c2ccccc12)NC(=O)[C@H](C)NC(=O)[C@@H](NC(=O)[C@H](Cc1ccccc1)NC(=O)[C@H](CCC(=O)O)NC(=O)[C@H](C)NC(=O)[C@H](C)NC(=O)[C@H](CCCNC(=N)N)NC(=O)[C@H](CCCNC(=N)N)NC(=O)[C@@H](NC(=O)[C@H](CC(=O)O)NC(=O)[C@H](CC(C)C)NC(=O)[C@H](Cc1ccc(O)cc1)NC(=O)[C@H](CCCCN)NC(=O)[C@H](CO)NC(=O)[C@H](Cc1ccc(O)cc1)NC(=O)[C@H](CC(=O)O)NC(=O)[C@H](CO)NC(=O)[C@@H](NC(=O)[C@H](Cc1ccccc1)NC(=O)[C@@H](NC(=O)CNC(=O)[C@H](CSCNC(C)=O)NC(=O)[C@H](CO)NC(=O)[C@@H](N)Cc1c[nH]cn1)[C@@H](C)O)[C@@H](C)O)[C@@H](C)O)C(C)C)C(=O)N[C@@H](CC(=O)O)C(=O)N[C@@H](CCC(=O)O)C(=O)O [SEQ ID NO: 594] | 33
2 | CCCC[C@H](NC(=O)[C@H](CC(C)C)NC(=O)[C@H](Cc1c[nH]c2ccccc12)NC(=O)[C@H](C)NC(=O)[C@@H](NC(=O)[C@H](Cc1ccccc1)NC(=O)[C@H](CCC(=O)O)NC(=O)[C@H](C)NC(=O)[C@H](C)NC(=O)[C@H](CCCNC(=N)N)NC(=O)[C@H](CCCNC(=N)N)NC(=O)[C@@H](NC(=O)[C@H](CC(=O)O)NC(=O)[C@H](CC(C)C)NC(=O)[C@H](Cc1ccc(O)cc1)NC(=O)[C@H](CCCCN)NC(=O)[C@H](CO)NC(=O)[C@H](Cc1ccc(O)cc1)NC(=O)[C@H](CC(=O)O)NC(=O)[C@H](CO)NC(=O)[C@@H](NC(=O)[C@H](Cc1ccccc1)NC(=O)[C@@H](NC(=O)CNC(=O)[C@H](CC[S+](C)[O-])NC(=O)[C@H](CO)NC(=O)[C@@H](N)Cc1c[nH]cn1)[C@@H](C)O)[C@@H](C)O)[C@@H](C)O)C(C)C)C(=O)N[C@@H](CC(=O)O)C(=O)N[C@@H](CCC(=O)O)C(=O)O (stereo partly shown) [SEQ ID NO: 598] | 7
3 | CCCC[C@H](NC(=O)[C@H](CC(C)C)NC(=O)[C@H](Cc1c[nH]c2ccccc12)NC(=O)[C@H](C)NC(=O)[C@@H](NC(=O)[C@H](Cc1ccccc1)NC(=O)[C@H](CCC(=O)O)NC(=O)[C@H](C)NC(=O)[C@H](C)NC(=O)[C@H](CCCNC(=N)N)NC(=O)[C@H](CCCNC(=N)N)NC(=O)[C@@H](NC(=O)[C@H](CC(=O)O)NC(=O)[C@H](CC(C)C)NC(=O)[C@H](Cc1ccc(O)cc1)NC(=O)[C@H](CCCCN)NC(=O)[C@H](CO)NC(=O)[C@H](Cc1ccc(O)cc1)NC(=O)[C@H](CC(=O)O)NC(=O)[C@H](CO)NC(=O)[C@@H](NC(=O)[C@H](Cc1ccccc1)NC(=O)[C@@H](NC(=O)CNC(=O)[C@H](CCNC(C)=O)NC(=O)[C@H](CO)NC(=O)[C@@H](N)Cc1c[nH]cn1)[C@@H](C)O)[C@@H](C)O)[C@@H](C)O)C(C)C)C(=O)N[C@@H](CC(=O)O)C(=O)N[C@@H](CCC(=O)O)C(=O)O [SEQ ID NO: 595] | 19
4 | CCCC[C@H](NC(=O)[C@H](CC(C)C)NC(=O)[C@H](Cc1c[nH]c2ccccc12)NC(=O)[C@H](C)NC(=O)[C@@H](NC(=O)[C@H](Cc1ccccc1)NC(=O)[C@H](CCC(=O)O)NC(=O)[C@H](C)NC(=O)[C@H](C)NC(=O)[C@H](CCCNC(=N)N)NC(=O)[C@H](CCCNC(=N)N)NC(=O)[C@@H](NC(=O)[C@H](CC(=O)O)NC(=O)[C@H](CC(C)C)NC(=O)[C@H](Cc1ccc(O)cc1)NC(=O)[C@H](CCCCN)NC(=O)[C@H](CO)NC(=O)[C@H](Cc1ccc(O)cc1)NC(=O)[C@H](CC(=O)O)NC(=O)[C@H](CO)NC(=O)[C@@H](NC(=O)[C@H](Cc1ccccc1)NC(=O)[C@@H](NC(=O)CNC(=O)[C@H](CNC(N)=O)NC(=O)[C@H](CO)NC(=O)[C@@H](N)Cc1c[nH]cn1)[C@@H](C)O)[C@@H](C)O)[C@@H](C)O)C(C)C)C(=O)N[C@@H](CC(=O)O)C(=O)N[C@@H](CCC(=O)O)C(=O)O [SEQ ID NO: 596] | 13

Now from value to molecule:

Row | % activity [%] | Structure (SMILES)
5 | 15 | CSCC[C@H](NC(=O)[C@H](CC(C)C)NC(=O)[C@H](Cc1c[nH]c2ccccc12)NC(=O)[C@H](C)NC(=O)[C@@H](NC(=O)[C@H](Cc1ccccc1)NC(=O)[C@H](CC(=O)O)NC(=O)[C@H](C)NC(=O)[C@H](C)NC(=O)[C@H](CCCNC(=N)N)NC(=O)[C@H](CCCNC(=N)N)NC(=O)C(C)(C)NC(=O)[C@H](CC(=O)O)NC(=O)[C@H](CC(C)C)NC(=O)[C@H](Cc1ccc(O)cc1)NC(=O)[C@H](CCCCN)NC(=O)[C@H](CO)NC(=O)[C@H](Cc1ccc(O)cc1)NC(=O)[C@H](CC(=O)O)NC(=O)[C@H](CO)NC(=O)[C@@H](NC(=O)[C@H](Cc1ccccc1)NC(=O)[C@@H](NC(=O)CNC(=O)[C@H](CCC(N)=O)NC(=O)[C@H](CO)NC(=O)[C@@H](N)Cc1c[nH]cn1)[C@@H](C)O)[C@@H](C)O)C(C)C)C(=O)N[C@@H](CC(=O)O)C(=O)N[C@@H](CCC(=O)O)C(=O)O [SEQ ID NO: 600]
6 | 25 | CCCC[C@H](NC(=O)[C@H](CC(C)C)NC(=O)[C@H](Cc1c[nH]c2ccccc12)NC(=O)[C@H](C)NC(=O)[C@@H](NC(=O)[C@H](Cc1ccccc1)NC(=O)[C@H](CCC(=O)O)NC(=O)[C@H](C)NC(=O)[C@H](C)NC(=O)[C@H](CCCNC(=N)N)NC(=O)[C@H](CCCNC(=N)N)NC(=O)[C@@H](NC(=O)[C@H](CC(=O)O)NC(=O)[C@H](CC(C)C)NC(=O)[C@H](Cc1ccc(O)cc1)NC(=O)[C@H](CCCCN)NC(=O)[C@H](CO)NC(=O)[C@H](Cc1ccc(O)cc1)NC(=O)[C@H](CC(=O)O)NC(=O)[C@H](CO)NC(=O)[C@@H](NC(=O)[C@H](Cc1ccccc1)NC(=O)[C@@H](NC(=O)CNC(=O)[C@H](CCC(N)=O)NC(=O)[C@H](CO)NC(=O)[C@@H](N)Cc1c[nH]cn1)[C@@H](C)O)[C@@H](C)O)[C@@H](C)O)C(C)C)C(=O)N[C@@H](CC(=O)O)C(=O)N[C@@H](CCC(=O)O)C(=O)O [SEQ ID NO: 593]
7 | 86 | CSCC[C@H](NC(=O)[C@H](CC(C)C)NC(=O)[C@H](Cc1c[nH]c2ccccc12)NC(=O)[C@H](C)NC(=O)[C@@H](NC(=O)[C@H](Cc1ccccc1)NC(=O)[C@H](CC(=O)O)NC(=O)[C@H](C)NC(=O)[C@H](C)NC(=O)[C@H](CCCNC(=N)N)NC(=O)[C@H](CCCNC(=N)N)NC(=O)C(C)(C)NC(=O)[C@H](CC(=O)O)NC(=O)[C@H](CC(C)C)NC(=O)[C@H](Cc1ccc(O)cc1)NC(=O)[C@H](CCCCN)NC(=O)[C@H](CO)NC(=O)[C@H](Cc1ccc(O)cc1)NC(=O)[C@H](CC(=O)O)NC(=O)[C@H](CO)NC(=O)[C@@H](NC(=O)[C@H](Cc1ccccc1)NC(=O)[C@@H](NC(=O)CNC(=O)[C@H](CCNC(C)=O)NC(=O)[C@H](CO)NC(=O)[C@@H](N)Cc1c[nH]cn1)[C@@H](C)O)[C@@H](C)O)C(C)C)C(=O)N[C@@H](CC(=O)O)C(=O)N[C@@H](CCC(=O)O)C(=O)O [SEQ ID NO: 601]

Same assay, conditions: Table 27, glucagon receptor

Row | Structure (SMILES) | % activity [%]
8 | CC(=O)NCC[C@H](NC(=O)[C@H](CO)NC(=O)[C@@H](N)Cc1c[nH]cn1)C(=O)NCC(=O)N[C@H](C(=O)N[C@@H](Cc1ccccc1)C(=O)N[C@H](C(=O)N[C@@H](CO)C(=O)N[C@@H](CC(=O)O)C(=O)N[C@@H](Cc1ccc(O)cc1)C(=O)N[C@@H](CO)C(=O)N[C@@H](CCCCN)C(=O)N[C@@H](Cc1ccc(O)cc1)C(=O)N[C@@H](CC(C)C)C(=O)N[C@@H](CC(=O)O)C(=O)NC(C)(C)C(=O)N[C@@H](CCCNC(=N)N)C(=O)N[C@@H](CCCNC(=N)N)C(=O)N[C@@H](C)C(=O)N[C@@H](C)C(=O)N[C@@H](CC(=O)O)C(=O)N[C@@H](Cc1ccccc1)C(=O)N[C@H](C(=O)N[C@@H](C)C(=O)N[C@@H](Cc1c[nH]c2ccccc12)C(=O)N[C@@H](CC(C)C)C(=O)N[C@@H](CC(C)C)C(=O)N[C@@H](CC(=O)O)C(=O)N[C@H](C(=O)NCC(=O)N1CCC[C@H]1C(=O)N[C@@H](CO)C(=O)N[C@@H](CO)C(=O)NCC(=O)N[C@@H](C)C(=O)N1CCC[C@H]1C(=O)N1CCC[C@H]1C(=O)N1CCC[C@H]1C(=O)N[C@@H](CO)C(N)=O)[C@@H](C)O)C(C)C)[C@@H](C)O)[C@@H](C)O (H-HS[Dab](Ac)GTFTSDYSKYLD[Aib]RRAADFVAWLLDTGPSSGAPPPS-NH2; N-terminus assumed) | 113
9 | CC(=O)NCC[C@H](NC(=O)[C@H](CO)NC(=O)[C@@H](N)Cc1c[nH]cn1)C(=O)NCC(=O)N[C@H](C(=O)N[C@@H](Cc1ccccc1)C(=O)N[C@H](C(=O)N[C@@H](CO)C(=O)N[C@@H](CC(=O)O)C(=O)N[C@@H](Cc1ccc(O)cc1)C(=O)N[C@@H](CO)C(=O)N[C@@H](CCCCN)C(=O)N[C@@H](Cc1ccc(O)cc1)C(=O)N[C@@H](CC(C)C)C(=O)N[C@@H](CC(=O)O)C(=O)NC(C)(C)C(=O)N[C@@H](CCCNC(=N)N)C(=O)N[C@@H](CCCNC(=N)N)C(=O)N[C@@H](C)C(=O)N[C@H](C(=O)N[C@@H](CC(=O)O)C(=O)N[C@@H](Cc1ccccc1)C(=O)N[C@H](C(=O)N[C@H](C(=O)N[C@@H](Cc1c[nH]c2ccccc12)C(=O)N[C@@H](CC(C)C)C(=O)N[C@@H](CC(C)C)C(=O)N[C@@H](CC(=O)O)C(=O)N[C@@H](CCC(=O)O)C(=O)O)[C@@H](C)O)C(C)C)[C@@H](C)O)[C@@H](C)O)[C@@H](C)O (H-HS[Dab](Ac)GTFTSDYSKYLD[Aib]RRATDFVTWLLDE-OH; N-terminus and C-terminus assumed) | 46
10 | CC(=O)NCC[C@H](NC(=O)[C@H](CO)NC(=O)[C@@H](N)Cc1c[nH]cn1)C(=O)NCC(=O)N[C@H](C(=O)N[C@@H](Cc1ccccc1)C(=O)N[C@H](C(=O)N[C@@H](CO)C(=O)N[C@@H](CC(=O)O)C(=O)N[C@@H](Cc1ccc(O)cc1)C(=O)N[C@@H](CO)C(=O)N[C@@H](CCCCN)C(=O)N[C@@H](Cc1ccc(O)cc1)C(=O)N[C@@H](CC(C)C)C(=O)N[C@@H](CC(=O)O)C(=O)NC(C)(C)C(=O)N[C@@H](CCCNC(=N)N)C(=O)N[C@@H](CCCNC(=N)N)C(=O)N[C@@H](C)C(=O)N[C@@H](CO)C(=O)N[C@@H](CC(=O)O)C(=O)N[C@@H](Cc1ccccc1)C(=O)N[C@H](C(=O)N[C@@H](CO)C(=O)N[C@@H](Cc1c[nH]c2ccccc12)C(=O)N[C@@H](CC(C)C)C(=O)N[C@@H](CC(C)C)C(=O)N[C@@H](CC(=O)O)C(=O)N[C@@H](CCC(=O)O)C(=O)O)C(C)C)[C@@H](C)O)[C@@H](C)O (H-HS[Dab](Ac)GTFTSDYSKYLD[Aib]RRASDFVSWLLDE-OH; N-terminus and C-terminus assumed) | 54

Reference: patent US9150632B2 (Indiana University Research and Technology Corporation, priority 2009, dated 2015)
